The results in this text go back to patent publication US20250369031A1, “METHODS OF DETERMINING CERULOPLASMIN ACTIVITY AND APPLICATIONS THEREOF” (ACADEMIA SINICA, priority 2022, published 2025).

What all share (type): biochemical
Assay [1] concerns the target T1, ceruloplasmin (Homo sapiens, UniProt P00450).
T1 sequence (P00450 20-1065): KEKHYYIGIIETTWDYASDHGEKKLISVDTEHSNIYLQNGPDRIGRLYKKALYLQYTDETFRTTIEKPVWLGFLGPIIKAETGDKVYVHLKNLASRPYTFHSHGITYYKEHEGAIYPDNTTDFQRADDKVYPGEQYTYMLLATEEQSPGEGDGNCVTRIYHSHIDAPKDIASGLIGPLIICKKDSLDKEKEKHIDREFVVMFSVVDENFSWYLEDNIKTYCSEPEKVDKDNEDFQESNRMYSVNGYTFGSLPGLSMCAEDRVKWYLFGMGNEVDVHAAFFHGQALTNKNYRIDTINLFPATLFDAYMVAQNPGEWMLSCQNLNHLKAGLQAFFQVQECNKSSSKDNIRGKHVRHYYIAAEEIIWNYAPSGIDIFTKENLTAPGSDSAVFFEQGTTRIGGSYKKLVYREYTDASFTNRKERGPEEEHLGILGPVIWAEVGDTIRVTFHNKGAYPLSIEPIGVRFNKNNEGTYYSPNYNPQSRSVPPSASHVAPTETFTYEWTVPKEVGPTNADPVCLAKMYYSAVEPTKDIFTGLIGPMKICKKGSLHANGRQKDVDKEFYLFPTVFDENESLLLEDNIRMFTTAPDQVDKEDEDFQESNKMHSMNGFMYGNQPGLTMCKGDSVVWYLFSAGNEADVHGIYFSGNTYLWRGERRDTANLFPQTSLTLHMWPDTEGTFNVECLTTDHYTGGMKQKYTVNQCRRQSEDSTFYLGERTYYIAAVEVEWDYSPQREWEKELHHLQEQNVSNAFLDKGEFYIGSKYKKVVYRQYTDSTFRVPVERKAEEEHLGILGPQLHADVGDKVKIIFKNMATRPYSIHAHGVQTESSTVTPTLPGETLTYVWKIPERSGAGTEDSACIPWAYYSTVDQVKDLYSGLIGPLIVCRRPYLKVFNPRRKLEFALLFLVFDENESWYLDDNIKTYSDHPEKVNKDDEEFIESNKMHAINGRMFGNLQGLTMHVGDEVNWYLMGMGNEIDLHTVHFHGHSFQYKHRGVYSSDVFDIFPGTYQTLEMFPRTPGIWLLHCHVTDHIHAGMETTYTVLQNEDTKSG
The assay can be described thus: Cp-depletion test (serum filtered to remove proteins larger than 100 kDa), LCMS. The arrangement: Ceruloplasmin is made in the liver and then secreted into the blood; from tissue; host or cells: serum / plasma (normal adult, newborn; Cp-depleted serum by 100 kDa filtration as comparison). The conditions noted are these: Cp-depleted serum 5 μL, 30 min, 37° C. The protocol: Normal adult serum and plasma were controls. After incubation, the DMSO quenched mixture were 100-folds diluted and detected by LCMS.
The Cp depletion serum was obtained by size selection method. Briefly, the centrifuge filter was applied in normal serum to eliminate those proteins larger than 100 kDa, including Cp (˜130 kDa).

For assay [2], the system named is serum oxidases. Description: LC-MS/MS based serum oxidase activity assay.
Protocol: Samples were detected by LC-ESI-MS on a Velos Pro dual-pressure linear ion trap mass spectrometer (Thermo Fisher Scientific, San Jose, CA) equipped with an Ultimate 3000 RSLC system from Dionex (Dionex Corporation, Sunnyvale, CA), using a Xbridge C18 (HPLC column 1 mm×15 cm i.d., 3.5 μm particle size, 130 Å pore size). Briefly, the gradient employed was 50% buffer B at 5 min to 98% buffer B at 23 min with a flow rate of 50 μL/min, where buffer A was 0.1% formic acid/H2O and buffer B was 0.1% formic acid/acetonitrile. All spectra were acquired in the mass range m/z 200-2000. Electrospray voltage was maintained at 4.0 kV and capillary temperature was set at 275° C.
The stock solution of modified amino carbazoles (125 μM, 20 μL) were incubated with 5 μL of serum (estimate<10 nM of serum oxidases) in sodium acetate buffer (0.1M, pH 5.0, 5 μL) at 37° C. for 30 min. The serum oxidase oxidation was quenched by DMSO (90 μL), followed detection of LC-MS/MS.
The amount of the oxidized product was determined according to the area under the peak by integration. The specific Cp activity unit was calculated by the formula: Peak area of oxidized product MS2 ion/serum volume (μL).
The addition of DMSO was to quench the serum enzyme activity. After centrifugation, the supernatant of the mixture was detected by LC-MS/MS.
Assay [3] addresses T1, ceruloplasmin. Description: Ceruloplasmin spike-in experiment in normal serum, LC-MS/MS. The protocol:
To understand the relation between ceruloplasmin and serum oxidases and the reactivity of modified substrates and ceruloplasmin, spike-in experiment was performed. […] The assay was incubated at 37° C. for 30 mins, and quenching the reaction by DMSO. The final products were analyzed by LC-MS/MS.

Assay [4] concerns the target T1, ceruloplasmin. Description: Cp activity in newborn plasma, LCMS. More on the design: Ceruloplasmin is made in the liver and then secreted into the blood; from tissue; host or cells: serum / plasma (normal adult, newborn; Cp-depleted serum by 100 kDa filtration as comparison). The following applies: without dilution. The source says:
The DMSO quenched mixture were detected by LCMS without dilution.

For assay [5], the target named is T1, ceruloplasmin. Description: Colorimetric methods for ceruloplasmin oxidative activity. The arrangement: Ceruloplasmin is made in the liver and then secreted into the blood; from tissue; host or cells: serum / plasma (normal adult, newborn; Cp-depleted serum by 100 kDa filtration as comparison). The conditions noted are these: serum volume small than 10 μL. The source says: FIGS. 8A and 8B show the limitations of detection by current methods known in the art. […] The specific activity units of Cp are not reliable in lower volume of serum.
The limitations of current methods and available commercial kits were described. In current method, the colorimetric methods using p-phenylenediamine (PPD) and o-dianisidine dihydrochloride (ODD) as substrates are used for quantification of ceruloplasmin oxidative activity. […] The activity of ceruloplasmin were positively correlated to absorbance. However, the correlation of absorbance and serum volume small than 10 μL was poor (FIG. 8).

The subject of assay [6] is serum oxidases. The assay can be described thus: Library screening with serum, ESI-MS monitoring of oxidized products. The following applies: acetate buffer pH 5.0, 37° C., 1 h. On the procedure: The chemical library dissolved in DMSO individually to give stock concentrations of 1 mg/mL. Each chemical was placed in individual well and incubated with serum sample in acetate buffer (0.1M, pH 5.0) at 37° C. for 1 h. Additional DMSO was provided to inhibit oxidase activity. High-resolution ESI mass spectra (Bruker Daltonics spectrometer) was utilized to monitor the oxidized products.
To screen for suitable compounds as Cp substrates for MS analysis, an approach of combinatorial library screening in primary MS analysis was used to find out oxidized products and their relationship with initial substrates. Briefly, a platform for rapidly and conveniently screening various small molecules was established. In the chemical library collection as obtained, including natural products, synthetic compounds and heterocyclic molecules, each member was parallelly incubated with a certain small amount of serum for a desired reaction time. After quenching each enzyme reaction, analysis of the reaction products with ESI-MS was performed. Hits with reliable, major, and distinct oxidized product peaks in ESI-MS analysis were selected for further studies (FIG. 1).

Take `CCn1c2ccccc2c2cc(N)ccc21` [ACK-1006, 9-ethyl-9H-carbazol-3-amine]: the “oxidized product detected with Cp depleted serum” value on ceruloplasmin [1] is on record as “trace amount”. Further, the “signal intensity of m/z transition of the oxidized product” value with serum oxidases [2] (after 1000-fold dilution, serum less than 5 μL) is recorded as > 10^3. The “reaction time at which oxidized product reached highest amount” value in the assay on serum oxidases [2] (time-dependent assay) is 30 min. On ceruloplasmin [3], the “oxidation of substrate by recombinant ceruloplasmin” value is reported as “could be oxidized by recombinant ceruloplasmin”. Moreover, the “LCMS signal of oxidized substrate in new born plasma” value at ceruloplasmin [4] (new born plasma 5 μL, 30 min, 37° C.) is recorded as > 10^5. Moreover, the “signal of oxidative substrate in CP-depletion plasma compared with newborn plasma” value at ceruloplasmin [4] is “significantly lower”.

Consider `Nc1ccc(N)cc1` [p-phenylenediamine (PPD), p-phenylenediamine], for which the “correlation of absorbance and serum volume” value at ceruloplasmin [5] is given as “poor”.

With `COc1cc(-c2ccc(N)c(OC)c2)ccc1N.Cl.Cl` [o-dianisidine dihydrochloride (ODD), o-dianisidine dihydrochloride], the “correlation of absorbance and serum volume” value on ceruloplasmin [5] is “poor”.

In the case of `CCCCn1c2ccccc2c2cc(N)ccc21` [ACK-1001, 9-buyl-9H-carbazol-3-amine], in the assay on serum oxidases [6], the “products generated when reacting with serum oxidases” value is reported as “specific oxidized products”.

For `NCCc1c[nH]c2ccc(O)cc12` [ACK-1000, Serotonin (or 5-Hydroxytryptamine)], the “products generated when reacting with serum oxidases” value in the assay on serum oxidases [6] is listed as “specific oxidized products”.
